Patent US6503945B2, “Cationic amphiphiles containing N-hydroxyalkyl group for intracellular delivery of biologically active molecules” (Council of Scientific & Industrial Research, priority 1909, dated 2003)

System: COS-1 cells
Test: Cell transfection assay (β-galactosidase reporter gene activity)
Type: cell-based, African green monkey
Conditions: compared to Lipofectamine
Experimental: Separate 1 mole (80 l of a 0.0126 M stock solution in chloroform) of N,N-di-n-hexadecyl-N,N-dihydroxyethylammonium bromide (DHDEAB) and 1 mole of the neutral colipid cholesterol (40 l of a 0.0255 M stock solution in chloroform) were combined in a glass vial. The solvent was evaporated initially by a thin flow of moisture free nitrogen and then under high flow for two minutes and then further dried under vacuum (1 mm Hg) for 6 hours.
The dried lipid film was then hydrated with sterile deionized water (1 ml) overnight (9-10 hours) in room temperature to produce a dispersed suspension. The hydrated mixture was then vortexed for 1 minute and was sonicated in a probe sonicator at a constant 25 W sonic power for 5 minutes. The concentrations of both DHDEAB and cholesterol in the resulting solution obtained after sonication was 1 mM. […]
For protein estimation, the resultant medium was removed from the plates and the cells were washed with PBS- Lysis buffer (1001 containing 250 mM Tris.HCl, pH 8.0, 0.5% NP40) was added and the cells were lysed for 30 minutes. […] The plates were read in an Elisa reader (Molecular Devices, Vmax) with a 650 nm filter. […]
The level of galactosidase activity in a 501 lysate was measured by adding to 501 of 2× gal mixture containing 1.33 mg/ml o-nitrophenyl--D-galactopyranoside (Sigma N1127), 200 mM sodium phosphate pH 7.15 and […]. […]

| Molecule | in vitro transfection efficiencies |
| --- | --- |
| N,N,-di[O-hexadecanoyl]hydroxyethyl-N-hydroxyethyl-N-methylammonium bromide [amphiphile No. 5] | enhanced |
| CCCCCCCCCCCCCCCC[N+](CCO)(CCO)CCCCCCCCCCCCCCCC [amphiphile No. 1, N,N-di-n-hexadecyl-N, N-dihydroxyethylammonium bromide] | enhanced |
